The nature of series [1]: Half life in DMEM by RP-HPLC analysis in presence of fetal bovine serum. It is filed as ADME. Particulars: cattle, DMEM with fetal bovine serum.
A short description of series [2]: Stability of the compound in DMEM assessed as compound remaining after 40 mins by RP-HPLC analysis in presence of fetal bovine serum. It is filed as physicochemical. Particulars: cattle, DMEM with fetal bovine serum; read-out: Stability.
Series [3] can be described thus: Half life in human HeLa cell cytosolic extract by RP-HPLC analysis. The format is ADME, cell-based, Cytosol.

SMILES strings stand for the structures.

In the case of `CO[C@@H]1[C@H](O)[C@@H](COP(=O)([O-])OP(=O)(O)CP(=O)(O)OC[C@H]2O[C@@H](n3c[n+](C)c4c(=O)[nH]c(N(C)C)nc43)[C@H](O)[C@@H]2O)O[C@H]1n1cnc2c(N)ncnc21`, the half-life is 0.367 h in series [1] and 10 h in series [3]. The remaining at 40 min in series [2] stood at 35%.

On to `CO[C@@H]1[C@H](O)[C@@H](COP(=O)(O)OP(=O)([O-])OP(=O)(O)OC[C@H]2O[C@@H](n3c[n+](C)c4c(=O)[nH]c(N(C)C)nc43)[C@H](O)[C@@H]2O)O[C@H]1n1cnc2c(N)ncnc21`, for which the half-life in series [1] was 0.217 h; in series [3], 10 h. Besides, in series [2], the remaining at 40 min stood at 15%.

As to `CO[C@@H]1[C@H](O)[C@@H](COP(=O)(O)CP(=O)(O)OP(=O)([O-])OC[C@H]2O[C@@H](n3c[n+](C)c4c(=O)[nH]c(N(C)C)nc43)[C@H](O)[C@@H]2O)O[C@H]1n1cnc2c(N)ncnc21`, the half-life in series [1] was 0.583 h; in series [3], 120 h. Besides, the remaining at 40 min in series [2] turned out to be 52%.

In general, half-life refers to how long it takes for the measured level to halve.

(Values after ChEMBL document CHEMBL3091282, “Synthesis and evaluation of stability of m3G-CAP analogues in serum-supplemented medium and cytosolic extract” (Bioorg Med Chem, 2013).)
